Results reported in patent US10624895B2, “Methods of sensitizing a patient with glioma to a therapeutic agent by administering small hairpin RNA targeting PDZ-RHOGEF” (THE TRANSLATIONAL GENOMICS RESEARCH INSTITUTE, priority 2016, dated 2020).

Key:
TNFR1 = assay: Western blot of TNFR1 expression after PPF treatment; type: cell-based, human; conditions: T98G, GBM10, GBM43 cells, 5 μM PPF, 24 hours
Experimental: FIG. 24A—a Western blot analysis of TROY expression in T98G cells. Cells were treated with PPF at indicated concentrations for 6 hrs, lysed, and cell lysates immunoblotted with anti-TROY antibody. Immunoblotting of α-Tubulin in cell lysates is included as a loading control. FIG. 24B—Western blot analysis of TROY expression in T98G, GBM43, and GBM10 cells. Cells were treated with PPF at indicated concentrations for 24 hrs, lysed, and cell lysates immunoblotted with anti-TROY and α-Tubulin antibodies. FIG. 24C—Western Blot analysis of TROY expression in GBM10 and GBM43 primary glioma cells. Cells were treated with 5 μM PPF, lysed at the indicated time-points, and the lysates immunoblotted with an anti-TROY antibody. Immunoblotting of β-Actin in cell lysates is included as a loading control. FIG. […]—Western Blot analysis of T98G, GBM10 and GBM43 glioma cells treated with 5 μM PPF for 24 hours. […]
Referring now to FIGS. 24A, 24B, 24C, and 24D: The inventors investigated if PPF could be utilized pharmacologically to decrease TROY expression in GBM cells. […] Cells were treated with increasing concentration of PPF, 1 to 20 μM lysed, and TROY expression assessed by immunobloting. […] Protein concentrations were determined using the BCA Assay (Pierce). […] Protein bands were detected using SuperSignal® Chemiluminescent Substrate (Pierce) with a UVP BioSpectrum 500 Imaging System.

TROY = assay: Western blot of TROY expression after PPF treatment; type: cell-based, human
Experimental: FIG. 24A—a Western blot analysis of TROY expression in T98G cells. Cells were treated with PPF at indicated concentrations for 6 hrs, lysed, and cell lysates immunoblotted with anti-TROY antibody. Immunoblotting of α-Tubulin in cell lysates is included as a loading control. FIG. 24B—Western blot analysis of TROY expression in T98G, GBM43, and GBM10 cells. Cells were treated with PPF at indicated concentrations for 24 hrs, lysed, and cell lysates immunoblotted with anti-TROY and α-Tubulin antibodies. FIG. 24C—Western Blot analysis of TROY expression in GBM10 and GBM43 primary glioma cells. Cells were treated with 5 μM PPF, lysed at the indicated time-points, and the lysates immunoblotted with an anti-TROY antibody. Immunoblotting of β-Actin in cell lysates is included as a loading control. FIG. […]—Western Blot analysis of T98G, GBM10 and GBM43 glioma cells treated with 5 μM PPF for 24 hours. Lysates were immunoblotted with anti-TROY, anti-TNFR1, anti-EGFR, and β-Actin antibodies.
Referring now to FIGS. 24A, 24B, 24C, and 24D: The inventors investigated if PPF could be utilized pharmacologically to decrease TROY expression in GBM cells. The long-term established cell line T98G was first utilized to test the efficacy of PPF. Cells were treated with increasing concentration of PPF, 1 to 20 μM lysed, and TROY expression assessed by immunobloting. Briefly, monolayers of cells were washed in phosphate-buffered saline (PBS) containing 1 mM phenylmethylsulfonylfluoride and 1 mM sodium orthovanadate and then lysed in 2×SDS sample buffer containing protease and phosphatase inhibitors. Protein concentrations were determined using the BCA Assay (Pierce). Thirty micrograms of total protein was loaded per lane and separated by SDS-PAGE. After transfer, the nitrocellulose membrane (Invitrogen) was blocked with either 5% nonfat-milk or 5% BSA in TB ST before addition of primary antibodies and followed with peroxidase-conjugated secondary antibody (Promega). Protein bands were detected using SuperSignal® Chemiluminescent Substrate (Pierce) with a UVP BioSpectrum 500 Imaging System.

SMILES: CCCn1cnc2c1c(=O)n(CCCCC(C)=O)c(=O)n2C [PPF, 3-methyl-1-(5-oxohexyl)-7-propyl-3,7-dihydro-1H-purine-2,6-dione]
- TNFR1 expression (TNFR1): did not affect the expression
- TROY expression over time (TROY; GBM10 and GBM43 cells, 5 μM PPF, varying lengths of time): decreased in a time-dependent manner
- TROY expression (TROY; T98G cells, 1 μM PPF): significant suppression
- TROY expression (TROY; T98G cells, PPF 1 to 20 μM, 6 hrs): decreased in concentration dependent manner
- TROY expression (TROY; T98G, GBM10, GBM43 cells, 5 μM PPF, 24 hrs): effective in lowering TROY expression
